Several values for one entry are separate records, joined by “and”; a condition that tells them apart may be missing. Equal entries are not always repeated. Where two headings read alike, the source gives them in different places.
Test: Comparative bioavailability: single oral 150, 300, 450 mg MNTX tablets vs 12 mg SC injection, crossover
Assay type: in vivo, human
Details: for t1/2 / half-life: harmonic mean; for bioavailability: arithmetic mean AUC0-∞, read-out: dose-normalized bioavailability of oral MNTX relative to SC MNTX
Excerpt: The oral dosage levels and formulation of MNTX evaluated here were the same as those in a phase 3 study of oral MNTX tablets, with the exception of a nonfunctional coating on the MNTX tablets. […] The pharmacokinetics of the uncoated tablet used in the phase 3 study and the coated tablets used in the current study were compared in a separate study. […] A single-dose pharmacokinetic profile of oral MNTX tablets was also planned for evaluation in this study.
Presented herein is a randomized, open-label, crossover study consisting of 6 dosing sequences, each with 2 dosing periods; the dosing periods were separated by 7 days. All subjects were housed in the clinical research unit from Day −1 through Day 14 and were discharged on Day 15, which concluded their participation in the study. Prior to receiving study drug on Days 1 and 8, the subjects underwent an overnight fast of at least 10 hours, beginning on Days 0 and 7, respectively. In both dosing periods, the subjects received a single oral dose of MNTX tablets (150, 300, or 450 mg) or a single SC injection of MNTX (12 mg). The dosing was conducted in a crossover fashion (e.g., a tablet was administered at one visit and a SC injection was administered at the alternate visit). The strength of oral methylnaltrexone dose (150 mg, 300 mg, or 450 mg) and the dosing sequence (Day 1: oral tablet; Day 8: SC injection vs the alternate dosing order) for each subject were determined by random assignment. Each oral dose was administered with 240 mL of room temperature drinking water. The subjects were instructed to drink all of the water and were told to swallow the tablets whole (e.g., not to chew, divide, or crush them). Blood samples were collected for pharmacokinetic analyses prior to dosing (approximately 1 hour prior) on Day 1, and at 0.25, 0.5, 1, 2, 4, 6, 8, 10, 12, 16, 24, 36, 48, 72, 96, 120, 144, and 168 hours after dosing on Days 1 and 8.
Each tablet contained 150 mg of the active pharmaceutical ingredient, MNTX.
Each injection vial contained 12 mg of the active pharmaceutical ingredient, MNTX, per 0.6 mL of solution (i.e., 20 mg/mL solution).
In this study, all 48 enrolled subjects received study drug in each of the 2 study periods and were included in the safety and pharmacokinetic analyses.
This was a phase 1, randomized, open-label, crossover study consisting of 6 dosing sequences, each with 2 dosing periods. In both dosing periods, the subjects received a single oral dose of MNTX tablets (150, 300, or 450 mg) or a single SC injection of MNTX (12 mg). The dosing was conducted in a crossover fashion (i.e., a tablet was administered at one visit and a SC injection was administered at the alternate visit).
Forty-eight subjects were enrolled and 47 subjects (97.9%) completed the study; one subject discontinued due to personal reasons after receiving study drug in both study periods. The subjects received study drug in accordance with the randomization schedule; specifically, 16 subjects each received a single oral dose of 150, 300, and 450 mg MNTX tablets and all 48 subjects received a single 12 mg SC injection of MNTX.

[1] = MNTX 12 mg SC Injection, single dose, mean
[2] = MNTX 150 mg Tablet vs 12 mg SC Injection
[3] = MNTX 150 mg Tablet, single oral dose, mean
[4] = MNTX 300 mg Tablet, single oral dose, mean
[5] = MNTX 450 mg Tablet, single oral dose, mean

**Q.** Which t1/2 (MNTX 12 mg SC Injection, single dose) does the source give for `C[N@+]1(CC2CC2)CC[C@]23c4c5ccc(O)c4O[C@H]2C(=O)CC[C@@]3(O)[C@H]1C5.[Br-]` [MNTX, (R)—N-(cyclopropylmethyl) noroxymorphone methobromide] here?
**A.** 9.16 h

**Q.** And the “AUC0-∞” value [1]?
**A.** 269.09 ng·h/mL

**Q.** And the CL/F [1]?
**A.** 45698.7 mL/h and 45698.71 mL/h

**Q.** What about the Cmax [1] of the same compound?
**A.** 174.01 ng/mL

**Q.** And the “AUC0-t GMR, tablet/injection × 100” value [2]?
**A.** 35.61%

**Q.** And the “AUC0-∞ GMR, tablet/injection × 100” value [2]?
**A.** 36.41%

**Q.** What about the “Cmax GMR, tablet/injection × 100” value [2] of the same compound?
**A.** 5.779%

**Q.** And the t1/2 (MNTX 150 mg Tablet, single oral dose)?
**A.** 13.95 h

**Q.** And the “AUC0-∞” value [3]?
**A.** 106.87 ng·h/mL

**Q.** And the CL/F [3]?
**A.** 1735472.22 mL/h

**Q.** What about the Cmax [3] of the same compound?
**A.** 13.22 ng/mL

**Q.** And the “AUC0-t GMR, tablet/injection × 100” value (MNTX 300 mg Tablet vs 12 mg SC Injection)?
**A.** 74.73%

**Q.** What about the t1/2 (MNTX 300 mg Tablet, single oral dose) of the same compound?
**A.** 14.16 h

**Q.** And the “AUC0-∞” value [4]?
**A.** 231.24 ng·h/mL

**Q.** And the CL/F [4]?
**A.** 1564638.99 mL/h

**Q.** And the Cmax [4]?
**A.** 26.22 ng/mL

**Q.** And the “AUC0-t GMR, tablet/injection × 100” value (MNTX 450 mg Tablet vs 12 mg SC Injection)?
**A.** 121.4%

**Q.** And the t1/2 (MNTX 450 mg Tablet, single oral dose)?
**A.** 16.57 h

**Q.** And the “AUC0-∞” value [5]?
**A.** 373.32 ng·h/mL

**Q.** And the CL/F [5]?
**A.** 1664001.3 mL/h and 1664001.28 mL/h

**Q.** And the Cmax [5]?
**A.** 39.89 ng/mL

**Q.** And the AUC(0-t) (human, plasma, oral, 150 mg, MNTX 150 mg Tablet, read-out: AUC0-t, Geometric LSM)?
**A.** 94.2 ng·h/mL

**Q.** What about the AUC(0-inf) (human, plasma, oral, 150 mg, MNTX 150 mg Tablet, read-out: AUC0-∞, Geometric LSM) of the same compound?
**A.** 96.7 ng·h/mL

**Q.** What about the Cmax (human, plasma, oral, 150 mg, MNTX 150 mg Tablet, read-out: Cmax, Geometric LSM) of the same compound?
**A.** 9.47 ng/mL

**Q.** And the AUC(0-t) (human, plasma, oral, 300 mg, MNTX 300 mg Tablet, read-out: AUC0-t, Geometric LSM)?
**A.** 198 ng·h/mL

**Q.** And the AUC(0-inf) (human, plasma, oral, 300 mg, MNTX 300 mg Tablet, read-out: AUC0-∞, Geometric LSM)?
**A.** 200 ng·h/mL

**Q.** And the Cmax (human, plasma, oral, 300 mg, MNTX 300 mg Tablet, read-out: Cmax, Geometric LSM)?
**A.** 21.8 ng/mL

**Q.** And the AUC(0-t) (human, plasma, oral, 450 mg, MNTX 450 mg Tablet, read-out: AUC0-t, Geometric LSM)?
**A.** 321 ng·h/mL

**Q.** What about the AUC(0-inf) (human, plasma, oral, 450 mg, MNTX 450 mg Tablet, read-out: AUC0-∞, Geometric LSM) of the same compound?
**A.** 327 ng·h/mL

**Q.** What about the Cmax (human, plasma, oral, 450 mg, MNTX 450 mg Tablet, read-out: Cmax, Geometric LSM) of the same compound?
**A.** 32.7 ng/mL

**Q.** And the half-life (human, plasma, po, 150 mg, MNTX 150 mg Tablet, single oral dose)?
**A.** 14 h

**Q.** And the AUC(0-t) (human, plasma, po, 150 mg, MNTX 150 mg Tablet, single oral dose, mean, read-out: AUC0-t)?
**A.** 105 ng·h/mL

**Q.** And the AUC(0-inf) (human, plasma, po, 150 mg, MNTX 150 mg Tablet, single oral dose, mean, read-out: AUC0-∞)?
**A.** 107 ng·h/mL

**Q.** What about the Cmax (human, plasma, po, 150 mg, MNTX 150 mg Tablet, single oral dose, mean, read-out: Cmax) of the same compound?
**A.** 13.2 ng/mL

**Q.** And the half-life (human, plasma, po, 300 mg, MNTX 300 mg Tablet, single oral dose)?
**A.** 14.2 h

**Q.** What about the AUC(0-t) (human, plasma, po, 300 mg, MNTX 300 mg Tablet, single oral dose, mean, read-out: AUC0-t) of the same compound?
**A.** 229 ng·h/mL

**Q.** What about the AUC(0-inf) (human, plasma, po, 300 mg, MNTX 300 mg Tablet, single oral dose, mean, read-out: AUC0-∞) of the same compound?
**A.** 231 ng·h/mL

**Q.** And the Cmax (human, plasma, po, 300 mg, MNTX 300 mg Tablet, single oral dose, mean, read-out: Cmax)?
**A.** 26.2 ng/mL

**Q.** And the half-life (human, plasma, po, 450 mg, MNTX 450 mg Tablet, single oral dose)?
**A.** 16.6 h

**Q.** What about the AUC(0-t) (human, plasma, po, 450 mg, MNTX 450 mg Tablet, single oral dose, mean, read-out: AUC0-t) of the same compound?
**A.** 367 ng·h/mL

**Q.** And the AUC(0-inf) (human, plasma, po, 450 mg, MNTX 450 mg Tablet, single oral dose, mean, read-out: AUC0-∞)?
**A.** 373 ng·h/mL

**Q.** What about the Cmax (human, plasma, po, 450 mg, MNTX 450 mg Tablet, single oral dose, mean, read-out: Cmax) of the same compound?
**A.** 39.9 ng/mL

**Q.** And the half-life (human, plasma, sc, 12 mg, MNTX 12 mg SC Injection, single dose)?
**A.** 9.2 h

**Q.** What about the AUC(0-t) (human, plasma, sc, 12 mg, MNTX 12 mg SC Injection, single dose, mean, read-out: AUC0-t) of the same compound?
**A.** 268 ng·h/mL

**Q.** What about the AUC(0-inf) (human, plasma, sc, 12 mg, MNTX 12 mg SC Injection, single dose, mean, read-out: AUC0-∞) of the same compound?
**A.** 269 ng·h/mL

**Q.** And the Cmax (human, plasma, sc, 12 mg, MNTX 12 mg SC Injection, single dose, mean, read-out: Cmax)?
**A.** 174 ng/mL

**Q.** What about the AUC(0-t) (human, plasma, sc, 12 mg, MNTX 12 mg SC Injection, read-out: AUC0-t, Geometric LSM) of the same compound?
**A.** 264 ng·h/mL

**Q.** And the AUC(0-inf) (human, plasma, sc, 12 mg, MNTX 12 mg SC Injection, read-out: AUC0-∞, Geometric LSM)?
**A.** 266 ng·h/mL

**Q.** What about the Cmax (human, plasma, sc, 12 mg, MNTX 12 mg SC Injection, read-out: Cmax, Geometric LSM) of the same compound?
**A.** 164 ng/mL

**Q.** What about the Tmax (human, plasma, 12 mg SC injection, read-out: median Tmax (converted)) of the same compound?
**A.** 0.25 h

**Q.** What about the Tmax (human, plasma, MNTX 150 mg Tablet, single oral dose, median, read-out: Tmax) of the same compound?
**A.** 2 h

**Q.** And the Tmax (human, plasma, MNTX 300 mg Tablet, single oral dose, median, read-out: Tmax)?
**A.** 1.5 h

**Q.** And the Tmax (human, plasma, MNTX 450 mg Tablet, single oral dose, median, read-out: Tmax)?
**A.** 2 h

**Q.** What about the bioavailability (human, plasma, oral 150 mg vs 12 mg SC) of the same compound?
**A.** 3.2%

**Q.** What about the bioavailability (human, plasma, oral 300 mg vs 12 mg SC) of the same compound?
**A.** 3.4%

**Q.** And the bioavailability (human, plasma, oral 450 mg vs 12 mg SC)?
**A.** 3.7%

**Q.** And the Tmax (human, plasma, oral MNTX tablets 150 mg to 450 mg, read-out: median Tmax, range over the oral doses)?
**A.** 1.5 to 2 h

**Q.** And the tolerability (oral 150, 300, 450 mg tablets and 12 mg SC injection, healthy volunteers)?
**A.** well tolerated

**Q.** What about the “Tmax shorter following SC MNTX 12 mg versus oral MNTX 150, 300, and 450 mg” value (single doses) of the same compound?
**A.** 6- to 8 fold

**Q.** What about the “mean AUC0-∞ following SC MNTX 12 mg higher versus oral MNTX 300 mg” value (single doses) of the same compound?
**A.** 16%

**Q.** What about the “mean AUC0-∞ following SC MNTX 12 mg lower versus oral MNTX 450 mg” value (single doses) of the same compound?
**A.** 28%

**Q.** And the “t1/2 shorter following SC MNTX 12 mg versus oral MNTX 150, 300, and 450 mg” value (single doses)?
**A.** 5 to 7 h

Reference: US20190231771A1, “METHODS FOR TREATMENT AND PREVENTION OF OPIOID INDUCED CONSTIPATION USING ORAL COMPOSITIONS OF METHYLNALTREXONE” (Salix Pharmaceuticals, Ltd., priority 2011, published 2019)
